# Results reported in patent publication US9279807B2, “Materials and methods for the treatment of celiac disease” (ALBA THERAPEUTICS CORPORATION, priority 2006, dated 2016).
# “Also recorded” adds a separate entry of the source. Residues, ends and D or L forms follow the SMILES beside them.
# Tests used:
# [1] = system: Salmonella and E. coli strains; assay: Ames test (bacterial reverse mutation assay); conditions: up to 5000 μg per plate, with and without metabolic activation
# [2] = system: human peripheral lymphocytes; assay: In vitro chromosome aberration study; conditions: up to 1200 μg, with and without metabolic activation
# Beagle dogs = assay: Toxicity studies in Beagle dogs; format: in vivo, dog
# From the text: […] […] Any alterations in clinical pathology profiles were considered coincidental in nature. No alterations in absolute or relative organ weight data were detected.
# [3] = Absorption and systemic toxicity in animals, FITC labeling; format: in vivo
# healthy adults [4] = assay: Single dose safety trial in healthy adults (CLIN1001-001); format: in vivo, human
# From the text: The single dose trial was a double-blind, placebo controlled, randomized trial of 24 healthy adults. […] All AEs reported in this study resolved without concomitant therapy. Headache was the most common AE experienced, reported one time each by 3 (13%) subjects.
# Celiac Disease subjects = assay: Phase IIa multiple dose POC study (CLIN1001-004), safety
# From the text: Study drug will be dispensed to subjects for fourteen (14) days of treatment. Study drug will be administered three times a day. […] Gluten or gluten placebo will be taken during each meal. Subjects will remain on their gluten-free diet throughout the duration of the trial.
# All adverse events reported during the study will be listed, documenting course, severity, and outcome. Adverse events will be summarized by treatment, the MedDRA system organ class, and maximum severity. Laboratory parameters, vital signs, EKG assessments, and physical exam results will be summarized with descriptive statistics as appropriate.
# rats = assay: Toxicity studies in rats; format: in vivo, rat
# From the text: Toxicity studies have been performed in rats and Beagle dogs. […] Any alterations in clinical chemistry, hematology, coagulation, urinalysis and organ weight data were considered coincidental based on absence of dose-response relationships and absence of histopathological changes.
# healthy adults [5] = assay: Multi-dose safety trial in healthy adults (CLIN1001-003); format: in vivo, human; conditions: 24 healthy adults, 250 μg, 1, or 4 mg or placebo three times a day
# From the text: The multi-dose trial was a double-blind, placebo controlled, randomized trial of 24 healthy adults. […] Reported AEs were all mild and headache was the most common AE.
# rabbits = assay: Cardiovascular effects in unconscious female rabbits; format: in vivo, rabbit; conditions: intravenous, doses up to 1 mg/kg
# From the text: (§1) Two safety pharmacology studies for cardiotoxicity effects have been performed.
# [6] = Stability of drug substance; format: physicochemical; conditions: room temperature
# [7] = target: T1, potassium selective IKr current (hERG) (Homo sapiens, UniProt Q12809); assay: hERG test; format: cell-based; conditions: up to 1 ng/mL, stably transfected, normoxic conditions
# T1 construct: expressed in transfected cells; host or cells: HEK 203 cells (so in the source)
# From the text: as §1
# [8] = Plasma drug levels, multi-dose trial; format: in vivo, human; conditions: 3 times a day for 10 days; llq 0.5 ng/ml
# [9] = dogs, up to 9 mg/kg daily for 4 weeks
# [10] = CD subjects, 12 mg once daily Days 1-3, N = 14
# [11] = Related = Possible, probably, definite combined causalities, 12 mg, N = 14
# [12] = 24 healthy adults, 3, 12, or 36 mg or placebo, single dose
# [13] = Phase IIa, preliminary observations
# [14] = oral once daily for 28 days up to 1000 mg/kg
# From the text for CD subjects: One cohort of 24 subjects was planned, with a 2:1 randomization (drug:placebo) for once daily dosing on Days 1, 2 and 3. On Day 2, all subjects would receive a 2.5 gram oral gluten challenge in single blind fashion.
# Safety measures included monitoring of AEs, standard clinical panels for chemistry, hematology, and urinalysis, pregnancy screening, EKG, vital signs and physical exam findings.
# Spontaneous adverse events collected throughout the study were categorized according to WHO adverse reaction terminology and evaluated for duration, intensity, and possible association with the study drug per ICH guidelines. In addition, the following procedures were performed at various points throughout the course of the study: vital signs, complete physical exams, 12-lead electrocardiograms, full clinical (safety) laboratory analyses, serum pregnancy, urine drug screen and HIV and hepatitis serologies.
# All adverse events reported during the study were listed, documenting course, severity, and outcome and summarized by treatment, giving the number of subjects who experienced an adverse event, the maximum severity, and body system. GI adeverse events for each arm were tabulated by subject count and compared via Fisher's exact test.
# EKG results were classified as normal and abnormal. PR, RR, QRS, QT, and QTc intervals will be carefully examined and abnormalities tabulated.
# T1 sequence (Q12809 whole entry): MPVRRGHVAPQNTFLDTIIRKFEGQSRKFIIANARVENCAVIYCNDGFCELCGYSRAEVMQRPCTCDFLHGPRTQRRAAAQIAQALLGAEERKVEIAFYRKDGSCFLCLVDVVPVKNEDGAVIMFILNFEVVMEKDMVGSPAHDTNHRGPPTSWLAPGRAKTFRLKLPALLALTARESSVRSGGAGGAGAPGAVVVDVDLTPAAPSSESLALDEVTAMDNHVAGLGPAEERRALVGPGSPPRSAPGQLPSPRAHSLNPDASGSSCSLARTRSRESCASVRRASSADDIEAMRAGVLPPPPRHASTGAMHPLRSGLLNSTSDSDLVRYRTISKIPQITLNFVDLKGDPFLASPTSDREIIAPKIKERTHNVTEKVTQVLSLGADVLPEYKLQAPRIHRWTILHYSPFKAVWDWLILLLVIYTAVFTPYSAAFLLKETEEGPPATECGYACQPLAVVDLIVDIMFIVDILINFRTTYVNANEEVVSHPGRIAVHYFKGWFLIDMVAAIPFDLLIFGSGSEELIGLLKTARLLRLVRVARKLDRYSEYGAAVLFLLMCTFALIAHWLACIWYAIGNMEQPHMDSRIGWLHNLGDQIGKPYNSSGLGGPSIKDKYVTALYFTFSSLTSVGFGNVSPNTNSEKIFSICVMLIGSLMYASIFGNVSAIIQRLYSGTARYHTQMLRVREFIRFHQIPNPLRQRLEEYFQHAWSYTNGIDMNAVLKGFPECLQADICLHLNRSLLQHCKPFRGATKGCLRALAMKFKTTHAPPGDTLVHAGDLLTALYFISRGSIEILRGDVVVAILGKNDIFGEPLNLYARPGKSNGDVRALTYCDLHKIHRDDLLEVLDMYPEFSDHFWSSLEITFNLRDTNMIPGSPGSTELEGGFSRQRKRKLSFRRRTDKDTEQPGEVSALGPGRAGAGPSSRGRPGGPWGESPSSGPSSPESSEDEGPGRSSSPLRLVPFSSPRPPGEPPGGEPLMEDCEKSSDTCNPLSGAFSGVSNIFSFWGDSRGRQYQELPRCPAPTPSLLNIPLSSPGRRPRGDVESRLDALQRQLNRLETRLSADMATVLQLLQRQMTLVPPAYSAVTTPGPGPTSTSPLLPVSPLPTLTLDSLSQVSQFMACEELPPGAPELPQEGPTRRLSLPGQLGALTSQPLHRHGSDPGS
structure (smiles),measurement,setting,value
CC(C)C[C@H](NC(=O)[C@@H](NC(=O)CNC(=O)CN)C(C)C)C(=O)N[C@H](C(=O)N[C@@H](CCC(N)=O)C(=O)N1CCC[C@H]1C(=O)NCC(=O)O)C(C)C [AT-1001] (H-GGVLVQPG-OH),Mutagenic activity,[1],negative for mutagenic activity
same,Structural or numerical chromosome aberrations,[2],negative for inducing structural or numerical chromosome aberrations
same,Signs of toxicity,"Beagle dogs; Beagle dogs, single dose up to 5 mg/kg intravenously, observed 14 days",no signs of toxicity were observed
same,Clinical signs of toxicity,"Beagle dogs; dogs, enteric-coated beads 20 mg/kg day 1, 40 mg/kg day 2",no clinical signs of toxicity were noted
same,Total protein and globulin levels,"Beagle dogs; dogs, enteric-coated beads 20 mg/kg day 1, 40 mg/kg day 2, 24 hr after 40 mg/kg",slightly elevated
same,Treatment-related deaths and appearance,"Beagle dogs; dogs, enteric-coated beads orally up to 9 mg/kg daily for 4 weeks",No treatment-related deaths occurred and all dogs appeared normal
same,"Body weights, body weight gains, ophthalmic observations and EKG readings",Beagle dogs; [9],unaffected by treatment
same,Gross necropsy or histopathology findings,Beagle dogs; [9],None of the gross necropsy or histopathology findings were considered to be treatment-related
same,Overall safety and tolerability,CD subjects; 12 mg in CD subjects,"generally safe, well tolerated"
same,(%) of serious AEs,"CD subjects; 12 mg, N = 14",(0) %
same,Number of serious AEs,"CD subjects; 12 mg, N = 14",0
same,"Gastrointestinal Disorders, Subject Count (%)","CD subjects; 12 mg, N = 14, p 0.018 vs placebo",6 (43%)
same,Number of subjects reporting an AE,"CD subjects; CD subjects, 12 mg once daily Days 1-3, 2.5 g gluten Day 2, N = 14",10
same,(%) of subjects discontinued study due to AE,CD subjects; [10],(0) %
same,(%) of subjects reporting an AE,CD subjects; [10],(71) %
same,Number of subjects discontinued study due to AE,CD subjects; [10],0
same,Total number of AEs reported,CD subjects; [10],32
same,"Abdominal Discomfort, Subject Count (%)","CD subjects; CD-related, 12 mg, N = 14",0 (0%)
same,"Constipation, Subject Count (%)","CD subjects; CD-related, 12 mg, N = 14",0 (0%)
same,"Flatulence, Subject Count (%)","CD subjects; CD-related, 12 mg, N = 14",2 (14%)
same,"Vomiting, Subject Count (%)","CD subjects; CD-related, 12 mg, N = 14",3 (21%)
same,"Diarrhoea, Subject Count (%)","CD subjects; CD-related, 12 mg, N = 14, p 0.017 vs placebo",2 (14%)
same,"Abnormalities in safety laboratory tests, vital signs, ECG, physical examinations",CD subjects; Phase Ib study,no clinically significant abnormalities
same,"Deaths, SAEs, significant AEs, withdrawals due to AEs","CD subjects; Phase Ib study, 21 CD subjects, 12 mg or placebo for three days","no serious adverse events (SAEs); also recorded: no deaths, SAEs, significant AEs, or withdrawals due to AEs"
same,(%) of related AEs,CD subjects; [11],(3) %
same,Number of related AEs,CD subjects; [11],1
same,"Dyspepsia, Subject Count (%)","CD subjects; not CD-related, 12 mg, N = 14",3 (21%)
same,"Eructation, Subject Count (%)","CD subjects; not CD-related, 12 mg, N = 14",1 (7%)
same,"Gastrooesophageal Reflux, Subject Count (%)","CD subjects; not CD-related, 12 mg, N = 14",1 (7%)
same,"Nausea, Subject Count (%)","CD subjects; not CD-related, 12 mg, N = 14",4 (29%)
same,"Stomach Discomfort, Subject Count (%)","CD subjects; not CD-related, 12 mg, N = 14",2 (14%)
same,Passage into the submucosa or the vasculature,[3]; fluorescent FITC labeling,measurable amounts of the antagonist do not cross into the submucosa or the vasculature
same,Systemic toxicities,[3]; supra-therapeutic dosing in animals,devoid of significant systemic toxicities
same,Systemic absorption,"[3]; supra-therapeutic dosing in animals, multi-particulate oral formulation",not systemically absorbed to any significant extent
same,Serious adverse events,healthy adults [4]; [12],No Serious Adverse Events (SAEs)
same,Severity of adverse events,healthy adults [4]; [12],mild or moderate in severity
same,"Clinically significant trends (clinical laboratory, vital sign, EKG, physical examination)",healthy adults [4]; single dose trial,No clinically significant treatment-related trends; also recorded: No Clinically Significant trends related to safety
same,Safety and tolerability of multiple oral doses,Celiac Disease subjects; Phase IIa patient population,demonstrated
same,Serious adverse events,"Celiac Disease subjects; Phase IIa, 0.25-8 mg TID 14 days, preliminary observations",No Serious Adverse Events (SAEs)
same,Clinically significant trends related to safety,Celiac Disease subjects; [13],No Clinically Significant trends related to safety
same,Severity of adverse events,Celiac Disease subjects; [13],mild or moderate in severity
same,Body weight gain in recovery group,"rats; 28 day study, males at week 8 (recovery week 4)",body weight gain was lower in the dose males at week 8
same,"Treatment-related findings, 14 day repeat-dose study",rats; oral gavage once daily for 14 days up to 1000 mg/kg,"no treatment-related clinical observations, clinical pathology changes, body weight or weight gain changes, organ weight changes, or gross or microscopic tissue changes"
same,"Food consumption, body weights/gains, ophthalmic observations",rats; [14],unaffected by treatment
same,Gross necropsy or histopathology findings,rats; [14],No gross necropsy or histopathology findings were considered to be treatment-related
same,Treatment-related deaths,rats; [14],No treatment-related deaths occurred
same,"Clinical observations, clinical chemistry, gross postmortem observations",rats; single dose intravenously up to 5 mg/kg,"no clinical observations, clinical chemistry changes, or gross postmortem observations"
same,Serious adverse events,healthy adults [5],No Serious Adverse Events (SAEs)
same,Severity of adverse events,healthy adults [5],all mild in severity
same,Effects on the EKG,rabbits,no notable effects
same,Stability,[6],up to 1 year
same,Effect on IKr current,[7],None of the concentrations of AT-1001 caused statistically significant effects
same,Plasma drug levels,[8],No measurable plasma drug levels
same,solubility,,> 1000 µg/mL
